From US6740670B2, “Thiazolidine derivatives and its use as antifungal agent” (Oxford Glycosciences (UK) Ltd., priority 2000, dated 2004) come the findings set out here.

One may read the IC50 as the point on the concentration scale where inhibition reaches its midpoint. As usually defined, the melting point is the temperature of the solid-liquid transition.

Data set [1] relates to Candida albicans (strain SC5314). As to the kind of experiment: G418 sensitivity assay. It counts as cell-based. The conditions noted are these: G418 100 μg/ml, overnight at 37° C., OD600 nm, concentration giving 50% reduction in cell growth relative to culture with G418 alone. The method, then:
This assay is based upon the observed increased sensitivity of the pmt1−/− Candida strain to Geneticin (G418) (6). 100 μl of a 0.1OD600 nm culture of Candida albicans (strain SC5314) is placed into a 96 well plate in the presence or absence of varying concentrations of test compound. The compounds are initially dissolved in DMSO and added to the cultures at a final DMSO concentration of 1%. G418 is added to a final concentration of 100 μg/ml. In the absence of PMT1 inhibition, this concentration of G418 has no effect on the proliferation of the organism. The cultures are grown overnight at 37° C. and cell density is then estimated by an OD600 nm measurement. The effect of the test compound is calculated as the concentration that gives a 50% reduction in cell growth relative to the culture with G418 alone.

The target of data set [2] is T1, Candida albicans PMT-1 enzyme (Candida albicans, UniProt O74189).
T1 construct: 25 μg of Candida albicans membrane protein; endogenous in cells
T1 sequence (O74189 1-877): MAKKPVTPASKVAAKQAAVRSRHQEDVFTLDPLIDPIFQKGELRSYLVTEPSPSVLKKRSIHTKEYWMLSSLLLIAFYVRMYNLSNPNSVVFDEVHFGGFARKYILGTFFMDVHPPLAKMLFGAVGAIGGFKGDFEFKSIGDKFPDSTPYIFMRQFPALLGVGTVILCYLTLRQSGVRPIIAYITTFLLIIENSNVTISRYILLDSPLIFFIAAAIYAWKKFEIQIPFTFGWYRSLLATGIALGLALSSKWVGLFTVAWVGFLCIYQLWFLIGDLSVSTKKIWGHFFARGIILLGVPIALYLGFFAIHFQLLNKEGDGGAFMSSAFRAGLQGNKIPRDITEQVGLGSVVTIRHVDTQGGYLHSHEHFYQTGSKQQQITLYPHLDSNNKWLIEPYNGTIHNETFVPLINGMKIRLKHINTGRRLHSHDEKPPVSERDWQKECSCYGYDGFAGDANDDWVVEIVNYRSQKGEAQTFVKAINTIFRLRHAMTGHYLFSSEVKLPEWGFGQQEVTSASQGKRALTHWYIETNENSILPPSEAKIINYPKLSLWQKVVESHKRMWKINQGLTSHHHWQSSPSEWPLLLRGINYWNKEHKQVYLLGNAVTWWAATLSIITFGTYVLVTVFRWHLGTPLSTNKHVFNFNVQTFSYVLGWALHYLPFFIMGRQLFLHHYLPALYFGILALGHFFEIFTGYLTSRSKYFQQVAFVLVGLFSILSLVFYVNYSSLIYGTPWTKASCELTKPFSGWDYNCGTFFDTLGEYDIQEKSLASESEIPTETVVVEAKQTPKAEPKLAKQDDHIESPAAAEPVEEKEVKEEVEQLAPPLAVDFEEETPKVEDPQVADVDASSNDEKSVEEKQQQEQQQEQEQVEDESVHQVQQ
The data set can be described thus: PMT-1 assay. It counts as biochemical. The conditions noted are these: Candida albicans membrane protein, peptide DYATAV, dolicholphospho-[3H]-mannose, 60 minutes at 25° C., pH 8.0; read-out: PMT-1 Inhibition (IC50). The method, then: The assay method is based upon the transfer of a radiolabelled mannose moiety from dolicholphosphomannose onto a threonine hydroxyl residue in a short peptide, as catalysed by the Candida albicans PMT-1 enzyme. Dolicholphospho-[^3H]-mannose is synthesised enzymatically from GDP-[^3H]-mannose and purified by chloroform: methanol extraction.
100000 Dpm of the generated substrate is incubated with 400 μg phosphatidylcholine, 25 μg of peptide (DYATAV) and 25 μg of Candida albicans membrane protein in a final volume of 50 μl in 100 mM Tris/1 mM MgCl2 buffer, pH 8.0. After 60 minutes at 25° C., the reaction is stopped with 50 μl of methanol. The unreacted radiolabel is removed by the addition of 150 μl of 0.4 g/ml octadecyl-functionalised silica (C18) in methanol. The C18 material is removed by centrifugation and the activity transferred to the peptide is counted in the supernatant.

For the molecule `CCCCCN(CCCCC)C(=O)c1cc(/C=C2\SC(=S)N(CC(=O)O)C2=O)ccc1OCc1ccccc1` [Example 34, 5-[[[3-(N,N-Dipentylamino)carbonyl-4-(phenylmethoxy)]-phenyl]methylene]-4-oxo-2-thioxo-3-thiazolidineacetic acid], the IC50 was found to be 1500 nM in data set [1] and 2500 nM in data set [2].

`C[C@@H](c1ccccc1)N(Cc1ccccc1)C(=O)c1cc(/C=C2\SC(=S)N(CC(=O)O)C2=O)ccc1OCc1ccccc1` [Example 35, 5-[[[3-((S)-N-Benzyl-N-alpha-methylbenzylamino)carbonyl-4-(phenyl-methoxy)]-phenyl]methylene]-4-oxo-2-thioxo-3-thiazolidineacetic acid] registered a melting point of 204 to 209 °C. In data set [1], this molecule came in with a half-maximal inhibitory concentration (IC50) of 650 nM. Moreover, the concentration for half-maximal inhibition (IC50) in data set [2] came to 600 nM.

As to `CCCCCN(CCCCC)C(=O)c1cc(/C=C2\SC(=S)N(CC(=O)O)C2=O)ccc1OCc1ccc(F)cc1F` [Example 49, 5-[[[3-(N,N-Dipentylamino)carbonyl-4-[(2,4-difluorophenyl)-methoxy]]phenyl]methylene]-4-oxo-2-thioxo-3-thiazolidineacetic acid], the IC50 in data set [1] and in data set [2] was 700 nM throughout.
